What was measured:
[1] = tested on: IL-1β in LPS-stimulated RAW264.7 cells; experiment: IL-1β concentration by ELISA; format: cell-based, mouse; conditions: 1 or 3 µg/mL 2 h prior to LPS 1 µg/mL for 16 h; n = 6, p < 0.05
Experimental: (§1) RAW264.7 cell (2 × 10^5 cells/well) were cultured in a 6-well plate for 24 h and treated with compounds (1 or 3 µg/mL) 2 h prior to LPS treatment, followed by LPS (1 µg/mL) for 16 h. The concentration of pro-inflammatory cytokines in the collected supernatant was quantified using an ELISA kit (R&D system, Minneapolis, MN, USA) according to the manufacturer’s instructions. Briefly, 50 μL of assay diluent, sample, and standards were added to the ELISA well plate, which were pre-coated with anti-mouse IL-1β and TNF-α antibody. The plates were then covered with adhesive strip, agitated, and incubated for 2 h at room temperature. The ELISA well-plate was washed five times with a wash buffer, then 100 μL of mouse IL-1β and TNF-α conjugates was added and incubated at room temperature for 2 h. The plate was washed five times, 100 μL of substrate solution was added to each well, and incubated for 30 min in the dark. The reaction was quenched by the addition of 100 μL stop solution to each well, and the absorbance was read 450 nm/570 nm with an ELISA reader (Molecular Devices, Sunnyvale, CA, USA).

[2] = target: T1, Human neutrophil elastase (HNE, EC 3.4.21.37) (Homo sapiens, UniProt P08246); experiment: Human neutrophil elastase inhibition, spectrophotometric, MeOSuc-AAPV-pNA substrate; format: biochemical; conditions: for Ki: Dixon plots, read-out: Ki (inhibition constant); for Type of Inhibition: Lineweaver-Burk and Dixon plots, reversibility from activity vs enzyme concentration plots; for IC50: concentration that caused 50% enzyme activity loss, three sets of experiments
T1 construct: purchased Sigma-Aldrich
T1 sequence (P08246 30-267): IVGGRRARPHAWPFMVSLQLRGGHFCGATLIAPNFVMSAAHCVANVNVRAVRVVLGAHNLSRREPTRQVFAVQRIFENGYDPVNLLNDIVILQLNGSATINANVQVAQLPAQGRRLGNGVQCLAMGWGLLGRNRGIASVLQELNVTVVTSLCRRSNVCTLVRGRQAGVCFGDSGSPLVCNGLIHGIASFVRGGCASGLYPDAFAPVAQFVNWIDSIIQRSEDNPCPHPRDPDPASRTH
Experimental: Human neutrophil elastase (EC 3. 4. 21. 37) (Sigma-Aldrich, St. Louis, MO, USA) activity was measured in accordance with the previous description with subtle modification, by observing the formation of p-nitroaniline after the hydrolysis of N-methoxysuccinyl-Ala-Ala-Pro-Val-p-nitro anilide at 405 nm. The inhibitors were dissolved in dimethyl sulfoxide (DMSO) and diluted to a few concentrations. In brief, in a 96-well plate, 10 µL of inhibitor solution and 40 µL of 1.5 mM of MeOSuc-AAPV-pNA were added as a substrate in the 0.02 mM Tris-HCl buffer solutions (pH 8.0). Then, 20 µL of human neutrophil elastase (0.2 unit/mL) was added to the mixture. The test mixtures were incubated and mixed for 15 min at room temperature and then screened at 405 nm for 30 min every 30 s.
Activity (%) = 100 [1/(1 + ([I]/IC50))].(1)
The modalities of HNE inhibition were estimated in experiments using particular concentrations of the substrates and inhibitors, respectively. The Michaelis–Menten constant (Km) and maximal velocity (Vmax) were investigated by a Lineweaver–Burk plot. The KI, dissociation constants for inhibitor binding to the free enzyme were calculated using a Dixon plot. Equations (2)–(4) are representatives for deriving the aforementioned parameters. (2) 1/V=Km/Vmax(1+[I]/Ki)×1/S+1/Vmax (3) Slop=Km/KiVmax[I]+Km/Vmax (4) Intercept=1/KiVmax[I]+1/Vmax.

[3] = tested on: TNF-α in LPS-stimulated RAW264.7 cells; experiment: TNF-α concentration by ELISA; format: cell-based, mouse; conditions: 1 or 3 µg/mL 2 h prior to LPS 1 µg/mL for 16 h; n = 6, p < 0.05
Experimental: as §1

RAW264.7 cells = experiment: MTT cell viability assay; format: cell-based, mouse; conditions: 10 µg/mL, 24 h
Experimental: The mouse macrophage cell line RAW264.7 was obtained from the American Type Culture Collection (ATCC, Manassas, VA, USA). The cells were cultured in DMEM supplemented with 10% fetal bovine serum (FBS), penicillin (100 U/mL), and streptomycin (100 μg/mL) at 37 °C with 5% CO2. The medium was replaced every 2 days. After treatment with chemicals, the cell morphological changes were observed under a microscope and images are captured before cell viability assay.
Cell viability was determined calorimetrically using a 3-(4,5-dimethylthiazole-2-yl)-2,5-diphenyl tetrazolium bromide (MTT) reagent (5 mg/mL in phosphate buffered saline (PBS), Duchefa Biochemie, Haarlem, The Netherlands). The MTT assay procedures were performed as described previously. Briefly, a 24-well plate (5 × 10^4 cells/well) was seeded with RAW264.7, a mouse macrophage cell line. After 24 h of chemical treatment, each well was filled with 20 µL of 5 mg/mL MTT solution (0.1 mg/mL) and incubated for 4 h. After aspirating the supernatants, the formazan crystals in each well were dissolved in 200 µL of dimethyl sulfoxide (DMSO) for 30 min at 37 °C, and the 24-well plates were read at 570 nm with a microplate reader (Bio-Rad, Hercules, CA, USA). Data are expressed as a percentage of viable cells compared with the control.

[4] = tested on: TNF-α mRNA in LPS-stimulated RAW264.7 cells; experiment: TNF-α mRNA expression by RT-PCR; format: cell-based, mouse; conditions: 1 or 3 µg/mL, n = 6, p < 0.05
Experimental: (§2) Total RNA was isolated from cultured RAW264.7 cells using TRIzol reagent (Ambion®, Carlsbad, CA, USA) according to the manufacturer’s instructions. First strand cDNA was synthesized from the total RNA (3 μg) using oligo dT (DiaStar RT Kit, SolGent, Daejeon, Korea) and was used as a template for PCR amplification with G-Taq polymerase (Cosmogenetech, Seoul, Korea). The first-strand cDNA was quantified using a spectrophotometer (NanoDrop® ND-1000, NanoDrop Technologies, Wilmington, […], USA). The quantified cDNA was used as a template. PCR assay was performed with specific primers for inducible nitric oxide (iNOS), IL-1β, and TNF-α. The PCR steps included initial denaturation at 94 °C for 5 min, then 28 cycles at 94 °C for 30 s, 57 °C for 30 s, and 72 °C for 30 s, and a final extension step at 72 °C for 10 min. The amplified PCR products were separated in 1.5% agarose gel, and the gel was stained with ethidium bromide. The bands were visualized using the iBright^TM CL1500 imaging system (Thermo Scientific Fisher/Life Technologies Holdings Pte Ltd., Singapore). The DNA fragments were directly sequenced with the ABI PRISM® 3100-Avant Genetic Analyzer (Applied Biosystems, Carlsbad, CA, USA).

[5] = tested on: iNOS mRNA in LPS-stimulated RAW264.7 cells; experiment: iNOS mRNA expression by RT-PCR; format: cell-based, mouse; conditions: 1 or 3 µg/mL, LPS 1 µg/mL; n = 5, p < 0.05
Experimental: as §2

| SMILES | LPS-upregulated IL-1β concentration [1] | Ki [2] [µM] | Type of Inhibition [2] | IC50 [2] [µM] | LPS-upregulated TNF-α concentration [3] | reduction of cell viability (RAW264.7 cells) [%] | LPS-upregulated TNF-α mRNA level [4] | LPS-induced iNOS mRNA upregulation [5] |
| --- | --- | --- | --- | --- | --- | --- | --- | --- |
| CC(C)=CCC/C(C)=C/C[C@@H](O)/C(C)=C/CC[C@@]1(C)[C@H](CCCO)/C(=C(/C)C=O)CC[C@]1(C)O [Compound 1, isoiridogermanal] | noticeably decreased | 12.7 | noncompetitive inhibition | 14.4 ± 0.3 | noticeably decreased | 28.8 ± 4.4 | noticeably decreased | significantly reduced |
| CC(C)=CCCC(C)=CCC(O)C(C)=CCCC1(C)C(CCCO)C(=C(C)C=O)CCC1(C)O (stereo not shown) [Compound 2, iridobelamal A] | noticeably decreased | 24.9 | noncompetitive inhibition | 27 ± 0.6 | noticeably decreased | 23.4 ± 5.1 | noticeably decreased | significantly reduced |
